In patent US6399583B1, “Hybrid anthracyclines from genetically engineered streptomyces galilaeus strains, process for production and uses thereof” (Galilaeus Oy, priority 1998, dated 2002):

Legend:
[1] = tested on: MES-SA human uterine sarcoma cells; assay: Cytotoxicity assay, luminescence ATP detection, MES-SA; type: cell-based; conditions: three days incubation, ATP content, highest concentration 10^-5 M, read-out: ED50 (nM) MES-SA
Method: (§1) The cytotoxicities of the new anthracyclines were tested in vitro with two cell lines: human uterine sarcomas MES-SA (CRL-1976; American Type Culture Collection (ATCC), Rockville, Md., USA) and MES-SA/D×5 (CRL-1977; ATCC, Rockville, Md., USA). MES-SA/D×5 has been developed by growing MES-SA cells in increasing concentrations of doxorubicin (Harker and Sikic, 1985).
(§2) Monolayer cultures were grown in McCoy's 5A medium with L-glutamine (Gibco BRL) supplemented with 10% FBS (Foetal Bovine Serum, Gibco BRL). No antibiotics were added. As the resistance is stable for at least 20 passages, the MES-SA/D×5 cells were grown without anthracycline selection (Harker and Sikic, 1985). Cells were maintained at 37° C. with 5% CO2 and subcultured every 3-5 days.
(§3) The cytotoxicity tests were performed in 96-well microtiter plates (sterile white plates with clear bottom, Corning Costar Corporation, Cambridge, Mass., USA). The anthracyclines were pipetted into the plates in 10 μl of ethanol, pure ethanol was used for control plates. Daunorubicin and aclarubicin were used as positive controls. When the ethanol had evaporated, the cells were seeded into the plates in 100 μl of appropriate medium. The number of cells seeded per well was 2500 with MES-SA, 3000 with MES-SA/D×5, 3000 with LL/2, 2000 with B16-F0 and B16-F1, 2000 with KLN-205 and 8000 with MLTC-1. The ATP content of the cells was measured after incubating the cells for three days at 37° C. with 5% CO2.
(§4) The growth medium was removed by turning the plates over, and 200 μl of ATP extraction reagent, Somalyze, were added to the wells. The plates were then incubated for 30 minutes at room temperature. The ATP measurement was performed with Luminoskan luminometer (Labsystems Oy, Helsinki, Finland) at 22° C. 20 μl of ATP monitoring reagent containing luciferin and luciferase was dispensed, and an integral measurement of 10 s with 2 s lag time was performed for each well. All reagents used were supplied by Bio-Orbit Oy, Turku, Finland.
(§5) The direct luminometer output (in relative light units, RLUS) was used to calculate the cytotoxic effect. This light signal is directly proportional to the amount of […] in a wide range (determined with Bio-Orbit ATP standard, data not shown). On the other hand, the amount of ATP is directly proportional to the amount of living cells (Kangas et al., 1984). The results are expressed as percentages of the control value of untreated cells. An IC50 value (the drug concentration resulting to an ATP signal of 50% of the untreated control signal) was graphically estimated from the % of control vs. drug concentration plot.

[2] = tested on: MES-SA/D×5 uterine sarcoma cells (doxorubicin-resistant, MDR); assay: Cytotoxicity assay, luminescence ATP detection, MES-SA/D×5; type: cell-based, human; conditions: MES-SA/D×5 cells, three days incubation, ATP content; highest concentration 10^-5 M; read-out: ED50 (nM) MES-SA/D × 5
Method: as §1, §2, §3, §4, §5

[3] = tested on: Lewis lung carcinoma (LL/2); assay: Cytotoxicity assay, ATP detection, LL/2; type: cell-based, mouse; conditions: LL/2 cells in vitro; read-out: ED50 LL/2
Method: as §3, §4, §5
(§6) H075-4a was also tested with several mouse cell lines in vitro (all were purchased from ATCC, Rockville, Md., USA): Lewis lung carcinoma (LL/2) (CRL-1642), B16-F0 melanoma (CRL-6322), B16-F1 melanoma (CRL-6323), KLN-205 lung squamous cell carcinoma (CRL-1453) and MLTC-1 leydig cell tumor (CRL-2065) using daunomycin, aclarubicin and H075-1a (MA 144U1) as references.
(§7) All cells grew as monolayers and were cultured at 37° C. with 5% CO2 according to ATCC standard instructions for each cell line: LL/2 in Dulbecco's modified Eagle's medium with 4.5 g/l glucose and 10% FCS, B16-F0 and B16-F1 in MEM (Eagle) in Earle's BSS with non-essential amino acids and 10% FCS, KLN-205 in MEM (Eagle) in Earle's BSS with non-essential amino acids and 10% FCS, MLTC-1 in RPMI 1640 with 25 mM HEPES and 10% FBS. All media were purchased from Gibco BRL, the serum was Gibco BRL Foetal Bovine Serum. […]

B16-F0 melanoma = assay: Cytotoxicity assay, ATP detection, B16-F0; type: cell-based, mouse; conditions: B16-F0 cells in vitro; read-out: ED50 B16-F0
Method: as §3, §4, §5, §6, §7

SK-N-MC = assay: Cytotoxicity assay, ATP detection, SK-N-MC; type: cell-based; conditions: SK-N-MC cells in vitro; read-out: ED50 SK-N-MC
B16-F1 melanoma = assay: Cytotoxicity assay, ATP detection, B16-F1; type: cell-based, mouse; conditions: B16-F1 cells in vitro; read-out: ED50 B16-F1
Method: as §3, §4, §5, §6, §7

[4] = tested on: KLN-205 lung squamous cell carcinoma; assay: Cytotoxicity assay, ATP detection, KLN-205; type: cell-based, mouse; conditions: KLN-205 cells in vitro; read-out: ED50 KLN-205
Method: as §3, §4, §5, §6, §7

MLTC-1 leydig cell tumor = assay: Cytotoxicity assay, ATP detection, MLTC-1; type: cell-based, mouse; conditions: MLTC-1 cells in vitro; read-out: ED50 MLTC-1
Method: as §3, §4, §5, §6, §7

P388 leukemia = assay: Cytotoxic activity in vivo: P388 leukemia model; set-up: species or system mice; conditions: 10^6 P388 cells i.p. day 0
From the text: P388 leukemia was maintained by serial intraperitoneal (i.p.) transplantations in DBA/2JBom female mice purchased from M & B A/S, Ry, Denmark. The animals were maintained at the facilities of Central Animal Laboratory, University of Turku. The management of the animal unit is based on and followed the guidelines: “European Convention for the protection of Vertebrate Animals used for Experimental and other Scientific Purposes, European Treaty Series No. 123 (EU No. 609/86), Official Journal of European Communities No. L 358, Strasbourg Nov. 24, 1986”, and “The Statute No. 1360/90 of the Finnish Law, Helsinki Dec. 21, 1990: Asetus kokeellisiin ja muihin tieteellisiin tarkoituksiin käytettävien selkärankaisten eläinten suojelemiseksi tehdyn eurooppalaisen yleissopimuksen voimaansaattamisesta. Suomen s{umlaut over (aa)}doskokoelma.”
The in vivo tests were started by injecting 10^6 P388 cells suspended in Dulbecco's phosphate buffered saline i.p. in mice on day 0. Groups of 3 mice were used. The drugs were administered i.p. on day 1 on the basis of individual body weight. The control group received vehicle (10% ethanol in Dulbecco's phosphate buffered saline).

Structure (SMILES) | EC50 [1] [nM] | EC50 [2] [nM] | other results
COC(=O)C1c2cc3c(c(O)c2C(OC2CC(O)C(OC4CC(O)C(OC5CC(O)C(O)C(C)O5)C(C)O4)C(C)O2)CC1(C)O)C(=O)c1c(O)cccc1C3=O (stereo not drawn) [Compound H075-3d] | > 10000 | > 10000 | 
CC1OC(OC2CC(C)(O)C(O)c3cc4c(c(O)c32)C(=O)c2c(O)cccc2C4=O)CC(N(C)C)C1O (stereo not drawn) [Compound H075-6c] | 4200 | > 10000 | 
CCC1(O)Cc2cc3c(c(O)c2C(OC2CC(N(C)C)C(OC4CC(O)C(OC5CC(O)C(O)C(C)O5)C(C)O4)C(C)O2)C1)C(=O)c1c(O)cccc1C3=O (stereo not drawn) [Compound H075-8a] | 130 | > 10000 | 
CCC1(O)CC(OC2CC(N(C)C)C(OC3CC(O)C(OC4CC(O)C(O)C(C)O4)C(C)O3)C(C)O2)c2c(cc3c(c2O)C(=O)c2c(O)cccc2C3=O)C1O (stereo not drawn) [Compound H075-2a] | 3200 | > 10000 | 
COC(=O)C1c2c(O)c3c(c(O)c2C(OC2CC(O)C(OC4CC(O)C(O)C(C)O4)C(C)O2)CC1(C)O)C(=O)c1c(O)cccc1C3=O (stereo not drawn) [Compound H075-5e] | 5200 | > 10000 | 
CCC1(O)CC(OC2CC(N(C)C)C(OC3CC(O)C(OC4CC(O)C(O)C(C)O4)C(C)O3)C(C)O2)c2c(cc3c(c2O)C(=O)c2c(O)cccc2C3=O)C1C(=O)OC (stereo not drawn) [Akv-Rhn-dF-dF, aklavinone-rhodosamine-2-deoxyfucose-2-deoxyfucose] | 6 | 540 | EC50 [3]: 38 nM; EC50 (B16-F0 melanoma): 14 nM; EC50 (SK-N-MC): 30 nM; EC50 (B16-F1 melanoma): 12 nM; EC50 [4]: 90 nM; EC50 (MLTC-1 leydig cell tumor): 600 nM
CCC1(O)CC(OC2CC(N(C)C)C(OC3CC(O)C(OC4CC(O)C(O)C(C)O4)C(C)O3)C(C)O2)c2c(O)c3c(c(O)c2C1O)C(=O)c1cccc(O)c1C3=O (stereo not drawn) [Compound H075-10a] | 30 | 1300 | Median survival days (range) (P388 leukemia; 4 mg/kg i.p. on day 1): 15 (14-17) days; Median survival days (range) (P388 leukemia; 8 mg/kg i.p. on day 1): 14 (13-15) days; Median survival days (range) (P388 leukemia; 16 mg/kg i.p. on day 1): 14 (14-15) days
CCC1(O)CC(OC2CC(N(C)C)C(OC3CC(O)C(O)C(C)O3)C(C)O2)c2c(cc3c(c2O)C(=O)c2c(O)cccc2C3=O)C1O (stereo not drawn) [Compound H075-2b] | 400 | > 10000 | 
CC1OC(OC2C(C)OC(OC3CC(C)(O)C(O)c4c(O)c5c(c(O)c43)C(=O)c3c(O)cccc3C5=O)CC2N(C)C)CC(O)C1O (stereo not drawn) [Compound H075-11b] | 60 | 3500 | Median survival days (range) (P388 leukemia; 4 mg/kg i.p. on day 1): 13 (12-13) days; Median survival days (range) (P388 leukemia; 8 mg/kg i.p. on day 1): 14 (13-15) days; Median survival days (range) (P388 leukemia; 16 mg/kg i.p. on day 1): 16 (15-19) days
CCC1(O)CC(OC2CC(O)C(OC3CC(O)C(OC4CC(O)C(O)C(C)O4)C(C)O3)C(C)O2)c2c(cc3c(c2O)C(=O)c2c(O)cccc2C3=O)C1O (stereo not drawn) [Compound H075-2d] | > 10000 | > 10000 | 
CC1OC(OC2C(O)CC(OC3CC(C)(O)C(O)c4c(O)c5c(c(O)c43)C(=O)c3c(O)cccc3C5=O)OC2C)CC(O)C1O (stereo not drawn) [Compound H075-11e] | 800 | > 10000 | 
CC1OC(OC2C(C)OC(OC3CC(C)(O)C(O)c4cc5c(c(O)c43)C(=O)c3c(O)cccc3C5=O)CC2N(C)C)CC(O)C1O (stereo not drawn) [Compound H075-6b] | 200 | > 10000 | 
